Data from US9283236B2 (HUMAN MATRIX SCIENCES, LLC, priority 2008, dated 2016).
“Also recorded” adds a separate entry of the source. Like-named read-outs stand apart in the source and are kept apart here.

Columns and labels:
[1] = test system: human fetal cardiac fibroblasts; assay: Quantitative assay of [3H]valine-labeled insoluble elastin; format: cell-based; conditions: for effect on aldosterone-induced increase in insoluble elastin production: agent added 1 hour before aldosterone (50 nM or 1 to 50 nmol/L)
[2] = test system: human fetal cardiac fibroblasts; assay: One-step RT-PCR of elastin mRNA in cardiac fibroblast cultures; format: cell-based; conditions: for effect on aldosterone-induced increase in elastin mRNA levels: agent added 1 hour (CT04 2 hours) before aldosterone
[3] = test system: human fetal cardiac fibroblasts; assay: One-step RT-PCR of collagen type I mRNA in cardiac fibroblast cultures; format: cell-based; conditions: 1 hour pretreatment before 1 to 50 nmol/L aldosterone; spironolactone 2 μmol/L, RU 486 1 μmol/L
[4] = test system: human fetal cardiac fibroblasts; assay: Immunostaining of collagen type I fibers in confluent cultures; format: cell-based; conditions: pretreatment before 1 to 50 nmol/L aldosterone; RU 486 1 μmol/L; FIG. 1
[5] = test system: adult human cardiac fibroblasts; assay: One-step RT-PCR of elastin mRNA in adult cardiac fibroblasts; format: cell-based; conditions: 1 hour pretreatment before aldosterone
[6] = test system: adult human cardiac fibroblasts; assay: Anti-elastin immunostaining in adult cardiac fibroblasts; format: cell-based; conditions: spironolactone pretreatment
Description: Control cell cultures received an equal amount of the solvent vehicle. […] ScienCell (San Diego, Calif.). At the end of the 72-hour incubation period with the indicated treatment, confluent cultures were either fixed in ice-cold 100% methanol at -20° C. […] The cultures were then incubated for 1 hour with 10 μg/ml polyclonal antibody to tropoelastin or with 10 μg/ml polyclonal antibody to collagen type I. All cultures were then incubated for an additional hour with fluorescein-conjugated goat anti-rabbit or with fluorescein-conjugated rabbit anti-goat secondary antibodies to detect elastin and collagen type I staining, respectively. Nuclei were counterstained with propidium iodide. Secondary antibody alone was used as a control. All of the cultures were then mounted in Elvanol and examined with a Nikon Eclipse […] microscope attached to a cooled charge-coupled device camera (Retiga EX; QImaging, Surrey, BC, Canada) and a computer-generated video analysis system (Image-Pro Plus software; Media Cybernetics, Silver Spring, Md.).

[7] = test system: human fetal cardiac fibroblasts; assay: Quantitative assay of [3H]valine-labeled immunoprecipitable tropoelastin; format: cell-based; conditions: spironolactone with 1 to 50 nmol/L aldosterone, 72 hours
Description: Fetal human cardiac fibroblasts were grown to confluence in 35-mm culture dishes (100,000 cells/dish) in quadruplicate. […] Cultures were incubated for 72 hours, and the soluble and insoluble elastin were assessed separately in each dish. The cells were extensively washed with phosphate-buffered saline, and the soluble proteins present in the intracellular compartments were extracted overnight at 4° C. with 0.1 mol/L acetic acid in the presence of proteinase inhibitors. After centrifugation, the supernatants were precleaned by 30-minute incubation with 50 μl of 4% protein A-beaded agarose, and then 500 μl of the supernatant was incubated with 5 μg of polyclonal antibody to tropoelastin for 2 hours and subsequently with 50 μl of 4% protein A-beaded agarose for 3 hours at 4° C. The protein A-containing beads were sedimented by centrifugation, washed with immunoprecipitation buffer, mixed with scintillation fluid, and counted. […] The resulting pellets containing the insoluble elastin were then solubilized by boiling in 200 μl of 5.7 N HCl for 1 hour, and the aliquots were mixed in scintillation fluid and counted. […] Final results reflecting amounts of metabolically labeled insoluble elastin in individual cultures were normalized per their DNA content and expressed as counts per minute per 1 μg of DNA.

IGF-IR = IGF-IR immunoprecipitation and anti-phosphotyrosine blot; format: cell-based, human
Description: Cells were lysed using an radioimmunoprecipitation assay buffer [50 mmol/L Tris-HCl, pH 7.4, 150 mmol/L NaCl, 1 mmol/L ethylenediamine tetraacetic acid, 10 mmol/L NaF, 1% Triton X-100, 0.1% sodium dodecyl sulfate, 1% sodium deoxycholate containing a cocktail of antiproteases (20 μg/ml leupeptin, 10 μg/ml aprotinin, 0.1 mmol/L phenylmethylsulfonyl fluoride, and 1 mmol/L dithiothreitol) and antiphosphates ([…] orthovanadate and 2 μg/ml pepstatin)], and 300 μg of protein extract was incubated with an antibody against IGF-IRβ for 1 hour at 4° C., followed by the addition of 4% protein A-beaded agarose left overnight, as previously described. The resulting protein-antibody conjugate was centrifuged at 4° C. and washed four times with phosphate-buffered saline. The final pellet was resuspended in sample buffer (0.5 mol/L Tris-HCl, pH 6.8, 10% sodium dodecyl sulfate, 10% glycerol, 4% 2-B-mercaptoethanol, and 0.05% bromphenol blue), and the mixture was boiled for 5 minutes. Proteins were resolved by 12% sodium dodecyl sulfate-polyacrylamide gel electrophoresis, transferred to nitrocellulose membranes, and then immunoblotted with anti-p-Tyr or anti-IGF-IR antibodies. The degree of expression or phosphorylation of immunodetected signaling molecules was measured by densitometry.
At the end of each experiment the cells were lysed as specified above, and 300 μg of protein extract were then precleared for 1 hour with normal rabbit agarose conjugated-IgG at 4° C. and incubated with rabbit polyclonal antibodies against IGF-IR-β, c-Src, or with Gα13 for 1 hour at 4° C., followed by the addition of 4% protein A-beaded agarose and left overnight. The resulting protein-antibody conjugate was centrifuged at 4° C. and washed four times with PBS. The final pellet was resuspended in sample buffer, and the proteins were resolved. Following immunoprecipitation of IGF-IR-β, the membrane was immunoblotted using monoclonal anti-p-Tyr antibody, stripped, and reprobed using anti-IGF-IR-β. Following immunoprecipitation of c-Src, the membranes were immunoblotted using polyclonal goat antibodies against anti-Gα13, while those immunoprecipitated with anti-Gα13 were developed with monoclonal anti-c-Src antibody. Blots were stripped and re-probed for equal loading.
The degree of expression or phosphorylation of immunodetected signaling molecules was measured by densitometry.

Gα13 and c-Src = assay: Co-immunoprecipitation of Gα13 and c-Src; format: cell-based, human; conditions: vs untreated controls
[8] = agent added before aldosterone, readout not specified, partly data not shown

With `CC(C)(C)c1cc(C=C(C#N)C#N)cc(Br)c1O` [AG 1024] the “effect on aldosterone-induced increase in insoluble elastin production” value ([1]; 72 hours) was “eliminated the stimulatory effect of aldosterone on elastin mRNA expression and insoluble elastin production; also recorded: returned insoluble elastin production to control values”, the “effect on IGF-I-induced increase in insoluble elastin production” value ([1]; pretreatment or siRNA transfection before 100 ng/ml IGF-I, 72 hours) was “could be prevented; also recorded: returned insoluble elastin production to control values” and the “effect on aldosterone-induced increase in elastin mRNA levels” value ([2]; 24 hours) was “eliminated the stimulatory effect of aldosterone on elastin mRNA expression; also recorded: abolished aldosterone- and IGF-I-induced increases in elastin mRNA transcript levels”. For the same molecule, the “effect on IGF-I-induced increase in elastin mRNA levels” value ([2]; pretreatment or siRNA transfection before 100 ng/ml IGF-I) was “could be prevented; also recorded: abolished aldosterone- and IGF-I-induced increases in elastin mRNA transcript levels”.

For `Cc1cc2ncc(-c3ccccc3)nc2cc1C` [AG 1295], the “effect on aldosterone-induced increase in elastin production (elastogenic response)” value [1, 8] was “did not affect the aldosterone-induced increase in elastin production”.

With `COc1cc2ncnc(Nc3cccc(Cl)c3)c2cc1OC` [AG 1478] the “effect on aldosterone-induced increase in elastin production (elastogenic response)” value [1, 8] was “did not affect the aldosterone-induced increase in elastin production”.

With `COc1cccc(-c2cc(=O)c3ccccc3o2)c1N` [PD 98059] the “insoluble elastin production, inhibitor alone” value ([1]; 10 μM, 72 hours, 10% FBS, vs untreated control) was “significantly increased insoluble elastin production” and the “effect on aldosterone-induced increase in insoluble elastin production” value ([1]; 72 hours) was “did not eliminate the elastogenic effect of aldosterone but instead led to a further increase in the production of elastin; also recorded: further increased insoluble elastin production”.

For `Cc1cc(Cn2cnc3c2C[C@@H](C(=O)O)N(C(=O)C(c2ccccc2)c2ccccc2)C3)ccc1N(C)C` [PD 123319], the “effect on aldosterone-induced increase in elastin production (elastogenic response)” value [1, 8] was “did not abrogate their elastogenic response to aldosterone”.

`CC#C[C@]1(O)CC[C@H]2[C@@H]3CCC4=CC(=O)CCC4=C3[C@@H](c3ccc(N(C)C)cc3)C[C@@]21C` [RU 486, mifepristone] was tested, and the “effect on aldosterone-induced increase in collagen type I mRNA levels” value [3] was “had no effect on the aldosterone-induced increase in collagen type I mRNA transcript levels”, the “effect on aldosterone-induced increase in elastin mRNA levels” value ([2]; 24 hours) was “had no effect on the aldosterone-induced increase in elastin mRNA levels; also recorded: neither spironolactone nor RU 486 eliminated this increase” and the “effect on aldosterone-induced collagen production” value [4] was “but not with the glucocorticoid receptor (GR) antagonist RU 486 (1 μmol/L), abrogated aldosterone-induced collagen production”.

In the case of `NC(=O)c1ccc(-c2nc(-c3ccc4c(c3)OCO4)c(-c3ccccn3)[nH]2)cc1` [SB 431542], the “effect on aldosterone-induced increase in elastin production (elastogenic response)” value [1, 8] is reported as “did not affect the aldosterone-induced increase in elastin production”.

With `C[C@@H](N)[C@H]1CC[C@H](C(=O)Nc2ccncc2)CC1` [Y-27632] the “effect on aldosterone-induced increase in elastin production (elastogenic response)” value [1, 8] was “did not eliminate the aldosterone-induced increase in elastin mRNA expression and elastin production” and the “effect on aldosterone-induced increase in elastin mRNA levels” value ([2]; 24 hours) was “did not eliminate the aldosterone-induced increase in elastin mRNA expression”.

`CCCCc1nc(Cl)c(CO)n1Cc1ccc(-c2ccccc2-c2nn[nH]n2)cc1` [losartan, Losartan] was tested, and the “effect on aldosterone-induced increase in elastin production (elastogenic response)” value [1, 8] was “did not abrogate their elastogenic response to aldosterone”.

In the case of `CC(=O)S[C@@H]1CC2=CC(=O)CC[C@]2(C)[C@H]2CC[C@@]3(C)[C@@H](CC[C@@]34CCC(=O)O4)[C@H]12` [spironolactone], the “effect on aldosterone-induced increase in collagen type I mRNA levels” value [3] is reported as “returned the aldosterone-induced increase in collagen type I mRNA levels to untreated values”, the “effect on aldosterone-induced increase in elastin mRNA, adult cardiac fibroblasts” value [5] is reported as “had no effect on the aldosterone-induced increase in elastin mRNA transcript levels” and the “effect on aldosterone-induced increase in insoluble elastin production” value ([1]; 72 hours) is reported as “failed to prevent; also recorded: did not eliminate the increase in insoluble elastin production”. The “effect on aldosterone-induced increase in elastin mRNA levels” value ([2]; 24 hours) was “failed to prevent an aldosterone-induced increase in elastin mRNA expression; also recorded: neither spironolactone nor RU 486 eliminated this increase”, the “effect on aldosterone-induced increase in elastic fiber deposition, adult cardiac fibroblasts” value [6] was “did not affect aldosterone-induced increase in elastic fiber deposition” and the “effect on aldosterone-induced collagen production” value [4] was “abrogated aldosterone-induced collagen production; also recorded: eliminated any aldosterone-induced increase in collagen type I production”. For the same molecule, the “effect on aldosterone-induced increase in tropoelastin production” value [7] was “failed to prevent; also recorded: did not abrogate the increase in tropoelastin production”.

With `CN[C@@H]1C[C@H]2O[C@@](C)([C@@H]1OC)n1c3ccccc3c3c4c(c5c6ccccc6n2c5c31)C(=O)NC4` [staurosporine] the “effect on aldosterone-induced increase in elastin production (elastogenic response)” value [1] was “did not abrogate the aldosterone-induced increase in elastin production”.

“CT04: cell-permeable Rho inhibitor (exoenzyme C3 transferase) from Cytoskeleton, Inc.” was tested, and the “effect on aldosterone-induced increase in elastin production (elastogenic response)” value [1, 8] was “did not eliminate the aldosterone-induced increase in elastin mRNA expression and elastin production” and the “effect on aldosterone-induced increase in elastin mRNA levels” value ([2]; 24 hours) was “did not eliminate the aldosterone-induced increase in elastin mRNA expression”.

For “IGF-I: recombinant human insulin-like growth factor-I”, the “tyrosine phosphorylation of the IGF-IR” value (IGF-IR; 10-minute exposure, 10% fetal bovine serum, aldosterone or BSA-conjugate 50 nM, IGF-I 100 ng/ml) was “produced a very similar effect”, the “tyrosine phosphorylation of the IGF-IR, dependence on serum” value (IGF-IR; presence vs absence of fetal bovine serum) was “induced phosphorylation of its IGF-IR, both in the presence and in the absence of fetal bovine serum” and the “net production of insoluble elastin” value ([1]; 100 ng/ml IGF-I, 72 hours) was “approximately threefold increase”. The “elastin mRNA levels” value ([2]; 100 ng/ml IGF-I, 24 hours) was “approximately threefold increase”.

For aluminum fluoride, the “interaction between c-Src and Gα13” value (Gα13 and c-Src) was “increased the interaction between c-Src and Gα13”.

In the case of pertussis toxin, the “effect on aldosterone-induced increase in insoluble elastin production” value ([1]; 72 hours) is reported as “did not inhibit the elastogenic effect of aldosterone” and the “effect on aldosterone-induced increase in elastin production (elastogenic response)” value [1, 8] is reported as “did not abrogate the aldosterone-induced increase in elastin production; also recorded: does not attenuate the pro-elastogenic effect of aldosterone”.
